Key:
[1] = molecular target: T1, Thioredoxin (Homo sapiens, UniProt P10599); assay: GSAO-B labelling of purified protein, streptavidin-peroxidase blot; format: binding; conditions: 100 μM GSAO-B, 5 μM protein, 30 minutes
T1 construct: purchased American Diagnostica, Greenwich, Conn; host or cells: E. coli
Procedure: (§1) FIG. 14. Interaction of GSAO-B with PDI and thioredoxin. A Structure of GSAO-B. B Purified human recombinant PDI (5 μM), human recombinant thioredoxin (5 μM) or bovine serum albumin (5 ? M) was incubated with dithiothreitol (10 μM) for 60 minutes at room temperature to ensure that the active site disulfide(s) of PDI and thioredoxin were in the reduced dithiol form. GSAO-B (100 ? M) or GSAO-B and DMP (400 μM) was then added and the reactions incubated for 30 minutes at room temperature. The labelled PDI (lanes 1 and 2), thioredoxin (lanes 3 and 4) and albumin (lane 5) (75 pmoles) was resolved on […] SDS-PAGE, transferred to PVDF membrane, and blotted with streptavidin-peroxidase to detect the GSAO-B label. The positions of Mr markers are shown at left.
(§2) Human recombinant PDI and thioredoxin bound GSAO-B (FIG. 14). Recombinant human protein disulfide isomerase (PDI) was produced in E. coli and purified according to Jiang et al. (1999). In the experiment, purified PDI, thioredoxin or albumin as negative control were incubated with a 2-fold molar excess of dithiothreitol for 60 minutes to ensure that the active site disulfides of PDI and thioredoxin were in the reduced dithiol state. The proteins were then incubated with GSAO-B or GSAO-B and a 4-fold molar excess of DMP for 30 minutes. Equivalent moles of the labeled proteins were resolved on SDS-PAGE, transferred to PVDF membrane, and blotted with streptavidin-peroxidase to detect the GSAO-B label. Samples were resolved on 4-15% SDS-PAGE under non-reducing conditions (Laemmli, 1970) and transferred to PVDF membrane. Proteins were detected by Western blot using an anti-PDI murine monoclonal antibody (Jiang et al., 1999) (used at 2 μg per mL). Rabbit anti-mouse horseradish peroxidase conjugated antibodies (Dako Corporation, Carpinteria, Calif.) were used at 1:2000 dilution. GSAO-B-labeled proteins were blotted with streptavidin peroxidase (Amersham, Sydney, NSW) used at 1:1000 dilution. […] Chemiluminescence films were analysed using a GS-700 Imaging Densitometer and Multi-Analyst software (Bio-Rad, Hercules, Calif.).

[2] = molecular target: T2, human recombinant PDI (Homo sapiens, UniProt P07237); assay: as above; format: binding
T2 construct: made in house; host or cells: E. coli
T2 sequence (P07237 18-508): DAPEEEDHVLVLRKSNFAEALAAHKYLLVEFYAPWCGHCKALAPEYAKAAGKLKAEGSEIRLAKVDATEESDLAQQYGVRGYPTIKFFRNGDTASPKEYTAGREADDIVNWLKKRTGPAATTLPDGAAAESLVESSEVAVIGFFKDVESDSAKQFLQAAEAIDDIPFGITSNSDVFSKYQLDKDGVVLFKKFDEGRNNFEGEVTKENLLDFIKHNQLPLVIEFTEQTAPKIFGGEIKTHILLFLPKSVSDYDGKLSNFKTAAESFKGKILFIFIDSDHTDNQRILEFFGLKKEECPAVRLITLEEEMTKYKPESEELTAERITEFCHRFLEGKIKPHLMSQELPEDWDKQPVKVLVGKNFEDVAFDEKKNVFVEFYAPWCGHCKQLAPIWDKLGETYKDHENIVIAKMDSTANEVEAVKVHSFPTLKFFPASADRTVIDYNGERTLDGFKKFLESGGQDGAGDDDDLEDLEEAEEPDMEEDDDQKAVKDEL
Procedure: as §1, §2

[3] = system: PDI; assay: GSAO-B labelling of PDI on the endothelial cell surface; format: cell-based; conditions: 100 μM GSAO-B, 30 minutes
Procedure: FIG. 17. PDI was one of the GSAO-B labelled proteins on the endothelial cell surface. HUVEC (5×10^6 cells in 0.75 mL) were labelled with GSAO-B (100 μM) for 30 minutes at 37° C. in the absence (lanes 1) or presence of DMP (400 μM) (lane 2). The cells were lysed and incubated with streptavidin-agarose beads to collect the biotin-labelled proteins. The labelled proteins were resolved on 4-15% SDS-PAGE, transferred to PVDF membrane, and blotted with anti-PDI monoclonal antibodies. The results represent labelling of 5×10^6 endothelial cells. The positions of Mr markers are shown at left.
BAE cells were labeled with GSAO-B in the absence or presence of DMP, lysed and incubated with streptavidin-agarose beads to collect the biotin-labeled proteins. The labeled proteins were eluted from the beads, resolved on SDS-PAGE, transferred to PVDF membrane, and blotted with anti-PDI polyclonal antibodies.

[4] = molecular target: T3, cell surface CD4 (Homo sapiens, UniProt P01730); assay: Labelling of cell surface CD4 on CEM-T4 cells; format: cell-based; conditions: 100 μM, 30 min
T3 construct: host or cells: CEM-T4
Procedure: FIG. 32. Labelling of cell surface CD4 with GSAO-B. CEM-T4 were labelled with either MPB or GSAO-B. The biotin-labelled proteins were collected on streptavidin-agarose beads, resolved on 5-15% SDS-PAGE and Western blotted using Leu3a monoclonal antibody. Lane 1 is MPB-labelled CEM-T4 CD4 and lane 2 is GSAO-B-labelled CEM-T4 CD04. Lane 3 is a control experiment where GSAO-B was incubated with CEM-T4 cells in the presence of 400 μM DMP. Biotin-labelled proteins were from 2×10^6 cells. The positions of Mr markers in kDa are shown at left.
CEM-T4 cells were obtained from the NIH AIDS Research and Reference Reagent Program, Rockville, Mass., CEM-T4 (1 mL of 5×10^6 per mL in Hanks balanced salt solution) were incubated with either sulfosuccinimidobiotin (SSB), 3-(N-maleimidylpropionyl)biocytin (MPB), or GSAO-B (100 μM) for 30 min at room temperature SSB was from Pierce, Rockford, Ill. while MPB was from Molecular Probes, Eugene, Oreg.. Unreacted SSB was quenched with glycine (200 μM), while unreacted MPB was quenched with reduced glutathione (GSH, 200 μM) for 30 min at room temperature. The labelled cells were washed twice with PBS and sonicated in 1 mL of 50 mM Tris-HCl, 0.5 M NaCl, 1% (v/v) Triton X-100, 10 μM leupeptin, 10 μM aprotinin, 2 mM phenylmethylsulfonyl fluoride, 5 mM EDTA, pH 8.0 buffer at 4° C. […]
Labelled CD4 was detected by blotting with the Leu3a monoclonal antibody (FIG. 32).

[5] = system: HMEC-1 or HUVE cells; assay: GSAO-B labelling of endothelial cell surface proteins; format: cell-based, human
Procedure: FIG. 16. Identification of endothelial cell surface proteins that contain closely spaced dithiols). A The surface of HMEC-1 or HUVE cells (2×10^6 cells in 0.4 mL) was labelled with GSAO-B (100 μM) for 30 minutes at room temperature in the absence (lanes 1 and 3) or presence of DMP (400 μM) (lane 2). The endothelial cells were lysed and the lysate from both incubations was resolved on 4-15% SDS-PAGE, transferred to PVDF membrane, and blotted with streptavidin peroxidase to detect the GSAO-B label. The results represent labelling of 3×10^4 HMEC-1 (lanes 1 and 2) of HUVE cells (lane 3). The positions of Mr markers are shown at left. B Densitometry profile of the surface labelled proteins (lanes 1 and 3). The apparent Mr's of the individual proteins are indicated.
Human umbilical vein endothelial cells (HUVEC) (Wall et al., 1978) and the human dermal microvascular endothelial cell line, HMEC-1 (Ades et al., 1992), were harvested and cultured as indicated. Endothelial cells (5×10^6) were detached from culture flasks using 5 mM EDTA in PBS at 37° C., washed 3 times with PBS, resuspended in PBS containing 100 μM of GSAO-B in the absence or presence of 400 μM DMP, and incubated for 30 minutes at room temperature. The cells were washed 3 times with 1 mL of PBS, resuspended in 0.2 mL of ice cold 50 mM Tris/HCl, pH 8 buffer containing 0.5 M NaCl, 1% Triton X-100, 10 μM leupeptin, 2 mM PMSF (Sigma Chemical Company, St, Louis, Mo.), 5 mM EDTA and 10 μM aprotinin (Bayer Australia Ltd., Sydney, NSW), and sonicated on ice. On some occasions the cell lysates were incubated with streptavidin-agarose (Sigma, Castle Hill, NSW) beads (25 μL of packed beads in a total volume of 1 mL) for 60 minutes at 4° C. with rotary mixing. Bound proteins were washed 5 times with 50 mM Tris/HCl, pH 8 buffer containing 0.15 M NaCl and 0.05% Triton X-100, resolved on SDS-PAGE, transferred to PVDF membrane, and the GSAO-B-labeled proteins detected by Western blot.

[6] = molecular target: bovine serum albumin (Bos taurus, UniProt P02769); assay: GSAO-B labelling of purified protein, streptavidin-peroxidase blot (negative control protein); format: binding; conditions: 100 μM GSAO-B, 5 μM protein, 30 minutes
bovine serum albumin, sequence (P02769 25-607): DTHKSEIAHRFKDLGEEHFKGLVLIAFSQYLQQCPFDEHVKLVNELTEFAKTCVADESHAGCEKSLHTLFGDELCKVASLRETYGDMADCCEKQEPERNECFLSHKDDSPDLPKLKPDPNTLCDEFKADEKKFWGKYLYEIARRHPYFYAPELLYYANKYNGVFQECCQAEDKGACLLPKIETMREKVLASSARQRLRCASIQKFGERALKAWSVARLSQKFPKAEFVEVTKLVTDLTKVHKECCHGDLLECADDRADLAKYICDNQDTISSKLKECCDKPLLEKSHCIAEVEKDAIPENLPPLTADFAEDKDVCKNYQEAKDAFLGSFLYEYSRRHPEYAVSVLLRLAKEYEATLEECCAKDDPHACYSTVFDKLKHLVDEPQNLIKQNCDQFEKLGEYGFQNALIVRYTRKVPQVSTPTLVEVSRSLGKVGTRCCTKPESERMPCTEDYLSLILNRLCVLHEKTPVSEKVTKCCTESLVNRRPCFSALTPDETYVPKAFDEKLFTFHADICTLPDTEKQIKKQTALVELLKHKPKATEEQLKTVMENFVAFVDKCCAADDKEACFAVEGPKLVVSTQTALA
Procedure: as §1
Human recombinant PDI and thioredoxin bound GSAO-B (FIG. 14). Recombinant human protein disulfide isomerase (PDI) was produced in E. coli and purified according to Jiang et al. (1999). […] Proteins were detected by Western blot using an anti-PDI murine monoclonal antibody (Jiang et al., 1999) (used at 2 μg per mL). […] Chemiluminescence films were analysed using a GS-700 Imaging Densitometer and Multi-Analyst software (Bio-Rad, Hercules, Calif.).

[7] = Stability of the trivalent arsenicals towards oxidation; format: physicochemical; conditions: slowed by removal of O2, lower pH or glycine
Description: This oxidation can be slowed in three ways; removal of dissolved O2 from solutions containing the arsenoxides, lowering the pH of these solutions, or by addition of glycine to the solutions. Glycine is routinely used to prevent oxidation of the stock solutions of the trivalent organoarsenicals. Similar to the reaction between 2,3-dimercaptopropanol and R—As(OH)2 in which a 5-membered dithioarsonite (XI) is formed, reaction of glycine with R—As(OH)2 is thought to give a 5-membered cyclic 1,3,2-oxazarsolidin-5-one (XII).

[8] = system: HIVIIIB; assay: HIVIIIB entry into / infection of A3.01 cells, p24 antigen; format: cell-based, HIV; conditions: 100 μM, 30 minutes before virus
Procedure: FIG. 33. […] Cells were washed and incubated in complete medium at 5% CO2 and 37° C. for up to 10 days. […] B Concentration dependence of GSAO. […] Cells were washed, incubated in complete medium at 5% CO2 and 37° C. for 3 days and the conditioned medium collected and assayed for p24 antigen.
FIG. 34. Inhibition of HIVIIIB infection of A3.01 cells by GSAO.
A3.01 human T cells were exposed to GSAO for 30 minutes and then to HTLVIIIB virus for 2 hours after which the cells were washed and then cultured for up to 10 days. HTLVIIIB and A3.01 cells were obtained from the NIH AIDS Research and Reference Reagent Program, Rockville, Mass. Virus stocks were made and infectivity titer determined using A3.01 cells and the p24 antigen assay (Coulter, Miami, Fla.). A3.01 cells were cultured in RPMI medium containing 10% fetal calf serum. […] Cell numbers and cell viability were determined at the times specified by staining cells with trypan blue and counting using a Neubauer haemacytometer. Cell viability was measured as a percentage of live cells to total cells.

T1 sequence (P10599 whole entry): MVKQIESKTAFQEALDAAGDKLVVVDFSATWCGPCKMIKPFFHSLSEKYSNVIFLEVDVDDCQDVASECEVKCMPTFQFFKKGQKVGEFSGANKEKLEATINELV

With “4-(N-(S-(N-(6-(N-(6-(N-(biotinoyl)amino)hexanoyl)amino)hexanoyl)glutathionyl)acetyl)amino)phenylarsenoxide [GSAO-B]” the “incorporation of GSAO-B label” value [1] was “incorporated GSAO-B”, the “incorporation of GSAO-B label” value ([2]; 100 μM GSAO-B, 5 μM protein, 30 minutes) was “incorporated GSAO-B” and the “density of labeling of PDI relative to thioredoxin” value ([2]; equivalent moles of protein) was “approximately twice that of thioredoxin”. For the same molecule, the “labelling of cell surface PDI” value [3] was “PDI was one of the proteins on the endothelial cell surface that incorporated GSAO-B”, the “labelling of T cell surface CD4” value [4] was “incorporated GSAO-B” and the “incorporation in the presence of DMP” value ([5]; 100 μM GSAO-B with 400 μM DMP) was “effectively no incorporation of GSAO-B in the presence of DMP”. The “proteins on the endothelial cell surface that bind the compound” value ([5]; 100 μM, 30 minutes) was “approximately ten proteins” and the “incorporation of GSAO-B label” value [6] was “albumin did not”.
In the case of O=[As]c1ccc(NC(=O)CBr)cc1 (stereo not shown) [BRAO, 4-(N-(bromoacetyl)amino)-phenylarsenoxide], the “stability of solutions towards oxidation” value [7] is reported as “deactivated over time by oxidation”.
With O=C(CCCC[C@@H]1SC[C@@H]2NC(=O)N[C@@H]21)NCCCC[C@H](NC(=O)CCN1C(=O)C=CC1=O)C(=O)O [MPB, 3-(N-maleimidylpropionyl)biocytin, reference compound] the “inhibition of HIVIIIB entry” value [8] was “Inhibition of HIVIIIB entry”.

From patent publication US7498406B2, “Substantially cell membrane impermeable compound and use thereof” (priority 1999, dated 2009)
